Assay results: US20100120762A1, “Triazine derivatives as inhibitors of phosphodiesterases” (WYETH, priority 2008, published 2010)
Read-outs that look alike come from different tables or passages of the source.

Key:
PDE2A (NM002599) = molecular target: T1, PDE2A (NM002599) (Homo sapiens, UniProt O00408); test: Inhibition of recombinant PDE2A (expressed in baculovirus/SF21-cells); type: biochemical
T1 construct: made in house; host or cells: baculovirus / SF21 insect cells
Procedure: PDE2A (NM002599) was cloned and the gene was inserted in the baculovirus and the enzyme-protein expressed in SF21-cells. The enzyme was isolated from these cells by harvesting the cells by an centrifugation at 200 g to collect the cells. The cells were resuspended in 50 mM Tris-HCl/5 mM MgCl2 buffer (pH=7.4) (Sigma, Deisenhofen, Germany; Merck, Darmstadt, Germany) and lysed by a sonication of the cells (three times for 15 seconds, Labsonic U, Fa. Braun, Degersheim, Switzerland, level “high”). The membrane fraction of PDE2A was obtained by a centrifugation at 48 000 g for 1 h, resuspended in buffer and stored at −70° C.
PDE2A activity was determined in a one step procedure in microtiterplates. The reaction mixture of 100 μl contained 50 mM Tris-HCl/5 mM MgCl2 buffer (pH=7.4) (Sigma, Deisenhofen, Germany; Merck, Darmstadt, Germany), 0.5 μM [3H]-cAMP (Amersham, Buckinghamshire, UK), 1000 nM cGMP and the enzyme. Non-specific enzyme activity was tested in the absence of cGMP. The reaction was initiated by addition of the substrate solution and was carried out at 37° C. for 30 minutes. Enzymatic activity then was stopped by addition of 25 μl SPA-beads (Amersham-Pharmacia). One hour later the mixture was measured in a liquid scintillation counter for microtiterplates (Microbeta Trilux). For pipetting of the incubation mixture the robot Biomek (Fa. Beckman) was routinely used.
The optimal amount of enzyme in the assay has been determined and optimised for each enzyme preparation separately before using the enzyme in compound testing. For determination of IC50 values the Hill-plot, 2-parameter-model, was used.

PDE10A1 (AB 020593) = molecular target: T2, PDE10A1 (AB 020593) (Homo sapiens, UniProt Q9Y233); test: Inhibition of recombinant PDE10A (baculovirus/SF21 system); type: biochemical
T2 construct: made in house; host or cells: baculovirus / SF21 insect cells (gene synthesized by Entelechon GmbH)
T2 sequence (Q9Y233 other isoform, or with tags, fused parts or gaps): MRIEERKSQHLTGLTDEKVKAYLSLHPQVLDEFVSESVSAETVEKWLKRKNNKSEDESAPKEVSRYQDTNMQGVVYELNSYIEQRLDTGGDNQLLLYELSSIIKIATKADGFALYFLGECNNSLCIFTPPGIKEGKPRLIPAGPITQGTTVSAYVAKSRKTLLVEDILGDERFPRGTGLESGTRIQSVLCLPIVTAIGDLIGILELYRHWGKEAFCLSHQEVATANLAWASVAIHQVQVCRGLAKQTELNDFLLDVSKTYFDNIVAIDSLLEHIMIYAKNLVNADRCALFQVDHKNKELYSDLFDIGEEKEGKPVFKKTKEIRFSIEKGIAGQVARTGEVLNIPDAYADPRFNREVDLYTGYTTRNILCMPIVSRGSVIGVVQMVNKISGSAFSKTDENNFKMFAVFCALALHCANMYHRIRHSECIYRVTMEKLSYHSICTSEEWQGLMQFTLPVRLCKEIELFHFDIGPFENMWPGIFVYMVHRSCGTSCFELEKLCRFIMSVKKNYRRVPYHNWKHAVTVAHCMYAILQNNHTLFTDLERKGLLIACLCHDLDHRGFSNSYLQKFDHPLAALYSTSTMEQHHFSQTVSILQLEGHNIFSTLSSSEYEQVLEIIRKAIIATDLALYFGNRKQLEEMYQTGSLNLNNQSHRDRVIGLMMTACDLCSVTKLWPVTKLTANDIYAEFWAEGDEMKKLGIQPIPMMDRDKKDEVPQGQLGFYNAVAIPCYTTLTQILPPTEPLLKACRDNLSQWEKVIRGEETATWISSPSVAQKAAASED
Procedure: The DNA of PDE10A1 (AB 020593, 2340 bp) was synthesized and cloned into the vector pCR4.TOPO (Entelechon GmbH, Regensburg, Germany). The gene was than inserted into a baculovirus vector, ligated with the baculovirus DNA. The enzyme-protein was expressed in SF21-cells. The enzyme was isolated from these cells by harvesting the cells by an centrifugation at 500 g to collect the cells.
The cells were resuspended in 50 mM Tris-HCl/1 mM EDTA/250 mM Sucrose buffer, pH=7.4 (Sigma, Deisenhofen, Germany; Merck, Darmstadt, Germany) and lysed by sonification of the cells (three times for 15 seconds, Labsonic U, Fa. Braun, Degersheim, Switzerland, level “high”). The cytosolic PDE10A was obtained by a centrifugation at 48,000 g for 1 h in the supernatant and stored at −70° C.
PDE activity was determined in a one step procedure in microtiter plates. The reaction mixture of 100 μl contained 50 mM Tris-HCl/5 mM MgCl2 buffer (pH=7.4, Sigma, Deisenhofen, Germany; Merck, Darmstadt, Germany) 0.1 μM [3H]-cAMP (Amersham, Buckinghamshire, UK) and the enzyme. Non-specific enzyme activity was determined without the enzyme. The reaction was initiated by addition of the substrate solution and was carried out at 37° C. for 30 minutes. Enzymatic activity then was stopped by addition of 25 μl Ysi-SPA-beads (Amersham-Pharmacia). One h later the mixture was measured in a liquid scintillation counter for microtiter plates (Microbeta Trilux). The Biomek 2000 (Beckman) was used routinely for pipetting of the incubation mixture. The optimal amount of enzyme in the assay has been determined and optimized for each enzyme preparation separately before using the enzyme in compound testing. For determination of IC50 values the Hill-plot, 2-parameter-model, was used.

[1] = recombinant PDE2A, 0.5 μM [3H]-cAMP, 1000 nM cGMP, 37° C., 30 minutes, SPA, read-out: PDE2A IC50
[2] = recombinant cytosolic PDE10A, 0.1 μM [3H]-cAMP, 37° C., 30 minutes, SPA, read-out: PDE10A IC50

T1 sequence (O00408 whole entry): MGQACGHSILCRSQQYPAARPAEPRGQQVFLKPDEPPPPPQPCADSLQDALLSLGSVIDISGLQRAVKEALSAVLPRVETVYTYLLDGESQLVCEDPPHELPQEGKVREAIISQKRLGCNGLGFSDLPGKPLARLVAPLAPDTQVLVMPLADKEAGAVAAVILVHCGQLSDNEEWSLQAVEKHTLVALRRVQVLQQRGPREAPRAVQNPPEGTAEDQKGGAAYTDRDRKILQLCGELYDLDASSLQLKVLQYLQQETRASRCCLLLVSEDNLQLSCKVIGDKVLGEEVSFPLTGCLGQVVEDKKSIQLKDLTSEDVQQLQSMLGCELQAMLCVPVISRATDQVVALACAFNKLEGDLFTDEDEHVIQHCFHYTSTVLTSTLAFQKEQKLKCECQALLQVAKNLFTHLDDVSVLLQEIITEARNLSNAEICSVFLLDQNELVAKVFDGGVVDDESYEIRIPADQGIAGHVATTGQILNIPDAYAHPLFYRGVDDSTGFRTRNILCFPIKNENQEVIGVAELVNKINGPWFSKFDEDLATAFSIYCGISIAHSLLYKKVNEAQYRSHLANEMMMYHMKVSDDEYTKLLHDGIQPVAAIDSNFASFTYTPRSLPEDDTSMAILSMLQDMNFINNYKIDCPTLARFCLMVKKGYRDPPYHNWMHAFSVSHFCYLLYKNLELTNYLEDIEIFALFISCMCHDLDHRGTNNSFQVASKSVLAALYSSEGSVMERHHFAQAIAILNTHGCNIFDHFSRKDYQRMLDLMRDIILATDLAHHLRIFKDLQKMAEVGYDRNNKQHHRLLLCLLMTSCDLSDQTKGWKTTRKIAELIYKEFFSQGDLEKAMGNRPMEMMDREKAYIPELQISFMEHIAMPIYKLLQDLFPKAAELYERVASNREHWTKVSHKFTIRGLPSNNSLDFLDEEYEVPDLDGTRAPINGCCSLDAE

IC50 (PDE2A (NM002599); [1]) [nM]	IC50 (PDE10A1 (AB 020593); [2]) [nM]	Compound	IC50 (PDE2A (NM002599)) [nM]	IC50 (PDE10A1 (AB 020593)) [nM]
171	3.01	COc1ccnc2c1nnc1c(C)nc(-c3cc(Cl)ccc3Cl)n12 [Example 113, 9-(2,5-dichlorophenyl)-4-methoxy-7-methylimidazo[5,1-c]pyrido[2,3-e][1,2,4]triazine]	–	–
62.9	86.9	COc1ccc2nnc3c(C)nc(-c4cc(Cl)ccc4OC)n3c2n1 [Example 98, 9-(5-chloro-2-methoxyphenyl)-2-methoxy-7-methylimidazo[5,1-c]pyrido[2,3-e][1,2,4]triazine]	–	–
2.33	70.9	COc1ccc2nnc3c(C)nc(-c4cc(Cl)ccc4Cl)n3c2n1 [Example 9, 1-(2,5-dichlorophenyl)-8-methoxy-3-methyl-imidazo[5,1-c]-pyrido[2,3-e][1,2,4]triazine]	–	–
272	367	COc1ccc2nnc3c(C)nc(-c4cncc(F)c4)n3c2n1 [Example 43, 9-(5-fluoropyridin-3-yl)-2-methoxy-7-methylimidazo[5,1-c]pyrido[2,3-e][1,2,4]triazine]	–	–
15.9	126	COc1ccc2nnc3c(C)nc(-c4cccnc4C)n3c2n1 [Example 50, 2-methoxy-7-methyl-9-(2-methylpyridin-3-yl)imidazo[5,1-c]pyrido[2,3-e][1,2,4]triazine]	–	–
8	106	COc1ccc2nnc3c(C)nc(-c4cc(Cl)ccc4C)n3c2n1 [Example 60, 9-(5-chloro-2-methylphenyl)-2-methoxy-7-methylimidazo[5,1-c]pyrido[2,3-e][1,2,4]triazine]	–	–
279	141	COc1ccc2nnc3c(C)nc(-c4cc(F)cc(C(N)=O)c4)n3c2n1 [Example 82, 3-fluoro-5-(2-methoxy-7-methylimidazo[5,1-c]pyrido[2,3-e][1,2,4]triazin-9-yl)benzamide]	–	–
109	160	COc1ccc2nnc3c(C)nc(-c4cccc(OC)c4F)n3c2n1 [Example 18, 9-(2-fluoro-3-methoxyphenyl)-2-methoxy-7-methylimidazo[5,1-c]pyrido[2,3-e][1,2,4]triazine]	–	–
772	> 500	COc1ccc2nnc3c(C)nc(-c4ccc(OC)c(Cl)c4)n3c2n1 [Example 95, 9-(3-chloro-4-methoxyphenyl)-2-methoxy-7-methylimidazo[5,1-c]pyrido[2,3-e][1,2,4]triazine]	–	–
–	–	COc1ccc2nnc3c(C)nc(-c4ccc5[nH]ccc5c4)n3c2n1 [Example 81, 9-(1H-indol-5-yl)-2-methoxy-7-methylimidazo[5,1-c]pyrido[2,3-e][1,2,4]triazine]	186	62.6
818	1780	COc1ccc2nnc3c(C)nc(-c4cccc(OC(C)C)c4)n3c2n1 [Example 27, 2-methoxy-7-methyl-9-[3-(1-methylethoxy)phenyl]imidazo[5,1-c]pyrido[2,3-e][1,2,4]triazine]	–	–
1950	42.4	COc1ccnc2c1nnc1c(C)nc(-c3cnccc3C)n12 [Example 115, 4-methoxy-7-methyl-9-(4-methylpyridin-3-yl)imidazo[5,1-c]pyrido[2,3-e][1,2,4]triazine]	–	–
148	303	CCOc1cccc(-c2nc(C)c3nnc4ccc(OC)nc4n23)c1 [Example 36, 9-(3-ethoxyphenyl)-2-methoxy-7-methylimidazo[5,1-c]pyrido[2,3-e][1,2,4]triazine]	–	–
> 1000	> 1000	COc1ccc2nnc3c(C)nc(-c4cc(F)cc(OC(C)C)c4)n3c2n1 [Example 22, 9-[3-fluoro-5-(1-methylethoxy)phenyl]-2-methoxy-7-methylimidazo[5,1-c]pyrido[2,3-e][1,2,4]triazine]	–	–
460	329	COc1ccc2nnc3c(C)nc(-c4cc(Cl)cc(Cl)c4)n3c2n1 [Example 97, 9-(3,5-dichlorophenyl)-2-methoxy-7-methylimidazo[5,1-c]pyrido[2,3-e][1,2,4]triazine]	–	–
11.8	13.1	COc1ccc2nnc3c(C)nc(-c4ccc(F)cc4Cl)n3c2n1 [Example 75, 9-(2-chloro-4-fluorophenyl)-2-methoxy-7-methylimidazo[5,1-c]pyrido[2,3-e][1,2,4]triazine]	–	–
73.7	216	COc1ccc2nnc3c(C)nc(-c4ccc(F)c(Cl)c4)n3c2n1 [Example 96, 9-(3-chloro-4-fluorophenyl)-2-methoxy-7-methylimidazo[5,1-c]pyrido[2,3-e][1,2,4]triazine]	–	–
144	682	COc1ccc2nnc3c(C)nc(-c4cccnc4)n3c2n1 [Example 55, 2-methoxy-7-methyl-9-pyridin-3-ylimidazo[5,1-c]pyrido[2,3-e][1,2,4]triazine]	–	–
19.4	60.8	COc1ccc(OC)c(-c2nc(C)c3nnc4ccc(OC)nc4n23)c1 [Example 24, 9-(2,5-dimethoxyphenyl)-2-methoxy-7-methylimidazo[5,1-c]pyrido[2,3-e][1,2,4]triazine]	–	–
423	158	COc1ccc2nnc3c(C)nc(-c4ccc(C(N)=O)c(Cl)c4)n3c2n1 [Example 84, 2-chloro-4-(2-methoxy-7-methylimidazo[5,1-c]pyrido[2,3-e][1,2,4]triazin-9-yl)benzamide]	–	–
56.2	85.6	COc1ccc2nnc3c(C)nc(-c4ccncc4C)n3c2n1 [Example 64, 2-methoxy-7-methyl-9-(3-methylpyridin-4-yl)imidazo[5,1-c]pyrido[2,3-e][1,2,4]triazine]	–	–
80.5	162	CCc1cccc(-c2nc(C)c3nnc4ccc(OC)nc4n23)c1 [Example 17, 9-(3-ethylphenyl)-2-methoxy-7-methylimidazo[5,1-c]pyrido[2,3-e][1,2,4]triazine]	–	–
3.24	48	Cc1nc(-c2cc(Cl)ccc2Cl)n2c1nnc1ccc(N3CCCC3)nc12 [Example 120, 1-(2,5-Dichloro-phenyl)-3-methyl-8-pyrrolidin-1-yl-imidazo[5,1-c]pyrido[2,3-e][1,2,4]triazine]	–	–
15.8	46.1	COc1ccc2nnc3c(C)nc(-c4ccccc4C)n3c2n1 [Example 101, 2-methoxy-7-methyl-9-o-tolylimidazo[5,1-c]pyrido[2,3-e][1,2,4]triazine]	–	–
243	617	CCOc1cccc(-c2nc(C)c3nnc4ccc(OC)nc4n23)c1F [Example 38, 9-(3-ethoxy-2-fluorophenyl)-2-methoxy-7-methylimidazo[5,1-c]pyrido[2,3-e][1,2,4]triazine]	–	–
79.6	732	COc1ccc2nnc3c(C)nc(-c4cc(Cl)ccc4C(F)(F)F)n3c2n1 [Example 99, 9-[5-chloro-2-(trifluoromethyl)phenyl]-2-methoxy-7-methylimidazo[5,1-c]pyrido[2,3-e][1,2,4]triazine]	–	–
1150	15.1	COc1ccnc2c1nnc1c(C)nc(-c3cccnc3C)n12 [Example 116, 4-methoxy-7-methyl-9-(2-methylpyridin-3-yl)imidazo[5,1-c]pyrido[2,3-e][1,2,4]triazine]	–	–

Compound	IC50 (PDE2A (NM002599); [1]) [nM]	IC50 (PDE10A1 (AB 020593); [2]) [nM]	IC50 (PDE2A (NM002599)) [nM]	IC50 (PDE10A1 (AB 020593)) [nM]
1-(2-Chloro-3-methyl-3H-imidazol-4-yl)-8-methoxy-3-methyl-imidazo[5,1-c]pyrido[2,3-e][1,2,4]triazine [Example 107]	358	600	–	–
